Test results as given in patent US10800791B2, “Triazole ACC inhibitors and uses thereof” (Gilead Apollo, LLC, priority 2015, dated 2020).
Values after ≈ are worked out from the molar mass of the structure shown. Read-outs that look alike come from different tables or passages of the source.

Columns and labels:
[1] = target: human (hACC2) (Homo sapiens, UniProt O00763); test: In vitro ACC inhibition assay (ADP-Glo), hACC2; format: biochemical; settings: 5 nM ACC2, 20 μM ATP, 20 μM acetyl-CoA
Experimental: The detailed procedure is as follows. […] 10 μL ADP glo reagent was added. […] 20 μL kinase detection reagent was added.

[2] = test system: C. parapsilosis; test: Antifungal Activity Assay (broth microtiter MIC), C. parapsilosis; format: cell-based, Candida parapsilosis; settings: Lodderomyces parapsilosis, ATCC22019, 48 h
Summary of the method: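 Susceptibility was determined by CLSI M27-A3 broth microdilution in RPMI 1640 buffered with MOPS. Growth inhibition was scored visually after 48 h.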

[3] = test system: Collectotrichum graminicola (Cg); test: Growth inhibition assay of fungal pathogens, Cg; format: cell-based; settings: 48 h
Summary of the method: (§1)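 Spores from sub-cultured plates were diluted in 17% V8 liquid medium and exposed to compound from DMSO stocks at final concentrations of 50, 10 and 2 ppm or 2, 0.4 and 0.08 ppm. OD600 and visual ratings at 48 h were compared with the 2% DMSO control to give percent growth inhibition.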

[4] = test system: Diplodia maydis (Dm); test: Growth inhibition assay of fungal pathogens, Dm; format: cell-based; settings: Stenocarpella maydis, 48 h
Summary of the method: as §1

[5] = test system: Fusarium moniliforme (Fm); test: Growth inhibition assay of fungal pathogens, Fm; format: cell-based; settings: for IC90: Fusarium verticillioides, 48 h, read-out: Concentration at 90% Inhibition Fm
Summary of the method: as §1

[6] = test system: Fusarium virguliforme (Fv); test: Growth inhibition assay of fungal pathogens, Fv; format: cell-based; settings: 48 h
Summary of the method: as §1

[7] = test system: Phytophthora capsici (Pc); test: Growth inhibition assay of fungal pathogens, Pc; format: cell-based; settings: 48 h
Summary of the method: as §1

[8] = test system: Rhizoctonia solani (Rs); test: Growth inhibition assay of fungal pathogens, Rs; format: cell-based; settings: 48 h
[9] = test system: Septoria tritici (St); test: Growth inhibition assay of fungal pathogens, St; format: cell-based; settings: Zymoseptoria tritici, 48 h
Summary of the method: as §1

[10] = target: fungal (fACC2) (UniProt Q00955); settings: read-out: fACC2 (in vitro ACC2 Inhibition Assay, IC50), ADP-Glo, 5 nM ACC2, 20 μM ATP, 20 μM acetyl-CoA
[11] = Table 3a, ATCC 22019, 3 replicates, MIC recorded at 48 h, read-out: MIC, C. parapsilosis ATCC 22019
[12] = Table 3b (additional results), ATCC 22019, 3 replicates, MIC recorded at 48 h, read-out: MIC, C. parapsilosis ATCC 22019
[13] = Collectotrichum graminicola, growth inhibition at 48 hours vs 2% DMSO control, read-out: Concentration at 90% Inhibition Cg
[14] = Collectotrichum graminicola, growth inhibition vs 2% DMSO control at 48 hours, read-out: Concentration at 90% Inhibition Cg
[15] = Diplodia maydis, growth inhibition at 48 hours vs 2% DMSO control, read-out: Concentration at 90% Inhibition Dm
[16] = Diplodia maydis, growth inhibition vs 2% DMSO control at 48 hours, read-out: Concentration at 90% Inhibition Dm
[17] = Fusarium moniliforme, growth inhibition at 48 hours vs 2% DMSO control
[18] = Fusarium moniliforme, growth inhibition vs 2% DMSO control at 48 hours
[19] = growth inhibition at 48 hours vs 2% DMSO control, read-out: Concentration at 90% Inhibition Fv
[20] = growth inhibition vs 2% DMSO control at 48 hours, read-out: Concentration at 90% Inhibition Fv
[21] = growth inhibition at 48 hours vs 2% DMSO control, read-out: Concentration at 90% Inhibition Pc
[22] = growth inhibition vs 2% DMSO control at 48 hours, read-out: Concentration at 90% Inhibition Pc
[23] = mycelial plugs, growth inhibition at 48 hours vs 2% DMSO control, read-out: Concentration at 90% Inhibition Rs
[24] = mycelial plugs, growth inhibition vs 2% DMSO control at 48 hours, read-out: Concentration at 90% Inhibition Rs
[25] = Septoria tritici, growth inhibition at 48 hours vs 2% DMSO control, read-out: Concentration at 90% Inhibition St
[26] = Septoria tritici, growth inhibition vs 2% DMSO control at 48 hours, read-out: Concentration at 90% Inhibition St

Sequence of human (hACC2) (O00763 whole entry): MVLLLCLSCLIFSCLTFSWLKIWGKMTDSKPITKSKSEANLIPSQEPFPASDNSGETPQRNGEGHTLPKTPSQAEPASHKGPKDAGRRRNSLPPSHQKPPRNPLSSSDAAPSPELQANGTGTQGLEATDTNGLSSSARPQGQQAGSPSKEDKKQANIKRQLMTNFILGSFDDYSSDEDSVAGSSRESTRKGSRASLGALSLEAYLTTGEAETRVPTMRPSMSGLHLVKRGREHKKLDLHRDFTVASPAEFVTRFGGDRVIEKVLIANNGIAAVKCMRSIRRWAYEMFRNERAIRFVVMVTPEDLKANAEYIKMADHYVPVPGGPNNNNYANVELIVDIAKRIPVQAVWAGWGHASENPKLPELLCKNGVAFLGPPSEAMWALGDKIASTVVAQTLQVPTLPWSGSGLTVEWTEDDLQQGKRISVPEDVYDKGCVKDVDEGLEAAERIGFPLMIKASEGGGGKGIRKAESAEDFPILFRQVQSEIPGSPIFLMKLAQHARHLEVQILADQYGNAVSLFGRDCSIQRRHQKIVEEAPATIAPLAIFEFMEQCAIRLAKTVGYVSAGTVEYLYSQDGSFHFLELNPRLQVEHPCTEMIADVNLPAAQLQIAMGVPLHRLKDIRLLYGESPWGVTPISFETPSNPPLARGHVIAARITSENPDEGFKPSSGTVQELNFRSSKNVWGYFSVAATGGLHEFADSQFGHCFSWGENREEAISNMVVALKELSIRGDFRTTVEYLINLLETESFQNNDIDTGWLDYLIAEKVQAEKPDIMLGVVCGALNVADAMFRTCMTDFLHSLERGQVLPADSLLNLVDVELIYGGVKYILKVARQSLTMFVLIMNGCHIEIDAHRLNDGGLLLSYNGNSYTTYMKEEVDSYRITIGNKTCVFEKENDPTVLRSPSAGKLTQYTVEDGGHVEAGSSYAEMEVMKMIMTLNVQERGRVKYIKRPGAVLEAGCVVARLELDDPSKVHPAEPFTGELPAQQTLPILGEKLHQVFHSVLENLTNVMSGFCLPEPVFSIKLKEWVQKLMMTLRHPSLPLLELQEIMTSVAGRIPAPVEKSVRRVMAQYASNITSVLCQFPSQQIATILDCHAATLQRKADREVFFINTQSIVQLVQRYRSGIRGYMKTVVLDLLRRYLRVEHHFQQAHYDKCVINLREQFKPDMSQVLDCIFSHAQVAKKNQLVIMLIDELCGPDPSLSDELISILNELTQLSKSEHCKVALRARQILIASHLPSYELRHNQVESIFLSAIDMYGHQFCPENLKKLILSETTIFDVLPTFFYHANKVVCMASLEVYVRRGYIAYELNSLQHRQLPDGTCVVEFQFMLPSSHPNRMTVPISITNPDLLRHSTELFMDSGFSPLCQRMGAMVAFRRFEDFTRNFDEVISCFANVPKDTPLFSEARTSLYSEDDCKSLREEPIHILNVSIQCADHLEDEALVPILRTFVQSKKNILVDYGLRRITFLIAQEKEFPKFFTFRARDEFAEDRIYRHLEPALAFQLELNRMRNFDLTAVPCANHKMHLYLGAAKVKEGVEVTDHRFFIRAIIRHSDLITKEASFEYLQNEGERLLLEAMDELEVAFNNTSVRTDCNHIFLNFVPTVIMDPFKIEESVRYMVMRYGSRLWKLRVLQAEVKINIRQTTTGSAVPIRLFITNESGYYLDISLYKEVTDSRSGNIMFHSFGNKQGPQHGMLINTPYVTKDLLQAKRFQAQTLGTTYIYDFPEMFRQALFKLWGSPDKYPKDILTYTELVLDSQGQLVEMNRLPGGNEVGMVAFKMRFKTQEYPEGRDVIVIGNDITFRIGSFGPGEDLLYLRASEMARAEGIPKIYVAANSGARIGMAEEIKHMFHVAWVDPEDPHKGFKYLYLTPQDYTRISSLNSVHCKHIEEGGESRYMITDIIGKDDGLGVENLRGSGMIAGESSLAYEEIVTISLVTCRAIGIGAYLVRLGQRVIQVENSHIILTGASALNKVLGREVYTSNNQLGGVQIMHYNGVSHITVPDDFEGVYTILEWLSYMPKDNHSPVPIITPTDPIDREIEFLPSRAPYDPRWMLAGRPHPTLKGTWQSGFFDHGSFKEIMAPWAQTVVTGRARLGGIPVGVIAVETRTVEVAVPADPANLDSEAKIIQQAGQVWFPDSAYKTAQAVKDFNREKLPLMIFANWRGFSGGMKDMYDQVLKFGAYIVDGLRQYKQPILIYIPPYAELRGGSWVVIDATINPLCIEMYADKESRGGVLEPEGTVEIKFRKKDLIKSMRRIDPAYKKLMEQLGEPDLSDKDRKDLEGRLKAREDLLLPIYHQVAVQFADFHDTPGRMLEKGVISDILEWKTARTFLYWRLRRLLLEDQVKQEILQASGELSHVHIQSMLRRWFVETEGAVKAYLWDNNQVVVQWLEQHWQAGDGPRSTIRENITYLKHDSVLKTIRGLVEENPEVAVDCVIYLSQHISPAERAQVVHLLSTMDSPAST
Sequence of fungal (fACC2) (Q00955 whole entry): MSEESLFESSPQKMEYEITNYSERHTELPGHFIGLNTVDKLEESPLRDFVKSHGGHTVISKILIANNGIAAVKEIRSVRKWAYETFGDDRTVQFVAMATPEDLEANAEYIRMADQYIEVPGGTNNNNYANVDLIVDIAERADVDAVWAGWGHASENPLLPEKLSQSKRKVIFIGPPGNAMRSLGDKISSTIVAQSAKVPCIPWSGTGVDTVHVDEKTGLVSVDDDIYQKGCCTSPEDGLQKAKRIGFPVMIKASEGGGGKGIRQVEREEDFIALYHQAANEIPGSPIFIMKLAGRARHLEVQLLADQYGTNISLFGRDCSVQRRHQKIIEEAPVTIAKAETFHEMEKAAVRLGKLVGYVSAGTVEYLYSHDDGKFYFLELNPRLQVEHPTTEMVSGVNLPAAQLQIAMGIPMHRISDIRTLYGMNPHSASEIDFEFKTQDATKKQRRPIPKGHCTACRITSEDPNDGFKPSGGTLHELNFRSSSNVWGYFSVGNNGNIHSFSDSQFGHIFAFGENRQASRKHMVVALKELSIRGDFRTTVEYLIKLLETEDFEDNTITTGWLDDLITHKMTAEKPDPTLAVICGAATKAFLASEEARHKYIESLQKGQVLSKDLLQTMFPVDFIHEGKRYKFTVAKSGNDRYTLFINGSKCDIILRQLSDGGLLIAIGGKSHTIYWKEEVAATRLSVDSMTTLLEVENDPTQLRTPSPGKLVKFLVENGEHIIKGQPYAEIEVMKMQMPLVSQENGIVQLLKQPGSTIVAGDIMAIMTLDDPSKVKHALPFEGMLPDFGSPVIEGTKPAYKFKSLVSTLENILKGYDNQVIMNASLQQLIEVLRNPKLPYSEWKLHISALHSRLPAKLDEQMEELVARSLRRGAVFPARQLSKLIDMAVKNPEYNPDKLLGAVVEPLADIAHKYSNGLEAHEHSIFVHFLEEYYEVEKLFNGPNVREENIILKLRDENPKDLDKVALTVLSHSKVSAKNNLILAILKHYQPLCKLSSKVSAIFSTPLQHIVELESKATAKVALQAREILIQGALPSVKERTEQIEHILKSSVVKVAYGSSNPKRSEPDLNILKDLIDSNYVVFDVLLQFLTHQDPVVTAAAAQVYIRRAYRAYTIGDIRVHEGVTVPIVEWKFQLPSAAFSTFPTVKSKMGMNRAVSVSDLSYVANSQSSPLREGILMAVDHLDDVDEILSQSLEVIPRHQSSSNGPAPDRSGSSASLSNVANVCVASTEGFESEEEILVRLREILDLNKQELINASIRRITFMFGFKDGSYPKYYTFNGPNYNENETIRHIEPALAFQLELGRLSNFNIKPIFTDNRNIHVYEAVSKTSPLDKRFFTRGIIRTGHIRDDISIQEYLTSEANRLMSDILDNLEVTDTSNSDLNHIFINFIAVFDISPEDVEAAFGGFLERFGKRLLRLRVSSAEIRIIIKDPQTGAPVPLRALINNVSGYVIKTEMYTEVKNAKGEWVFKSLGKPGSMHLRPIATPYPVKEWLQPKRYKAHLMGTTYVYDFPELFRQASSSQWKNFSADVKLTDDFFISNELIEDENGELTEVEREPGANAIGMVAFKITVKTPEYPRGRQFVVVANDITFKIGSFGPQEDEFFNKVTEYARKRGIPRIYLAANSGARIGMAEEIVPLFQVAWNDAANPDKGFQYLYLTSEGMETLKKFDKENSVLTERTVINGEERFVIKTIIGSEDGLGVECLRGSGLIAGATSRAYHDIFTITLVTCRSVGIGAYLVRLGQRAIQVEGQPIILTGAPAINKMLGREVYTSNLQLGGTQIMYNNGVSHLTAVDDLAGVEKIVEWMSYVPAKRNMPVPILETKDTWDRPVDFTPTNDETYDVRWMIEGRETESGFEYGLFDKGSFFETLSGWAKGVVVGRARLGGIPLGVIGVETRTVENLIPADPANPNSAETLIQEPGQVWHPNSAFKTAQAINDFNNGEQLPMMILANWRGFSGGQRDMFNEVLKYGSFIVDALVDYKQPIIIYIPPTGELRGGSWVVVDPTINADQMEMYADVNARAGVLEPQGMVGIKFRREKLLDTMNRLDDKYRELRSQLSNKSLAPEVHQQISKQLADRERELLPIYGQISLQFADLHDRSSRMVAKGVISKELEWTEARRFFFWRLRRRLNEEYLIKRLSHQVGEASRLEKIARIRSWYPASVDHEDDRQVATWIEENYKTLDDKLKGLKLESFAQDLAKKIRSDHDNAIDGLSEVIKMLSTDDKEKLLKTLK

| SMILES | IC50 ([1]; Table 2a) [nM] | IC50 ([1]; Table 2b, additional results) [nM] | MIC [2, 11] [mg/L] | MIC [2, 12] [mg/L] | IC90 [3, 13] [mg/L] | IC90 [3, 14] [mg/L] | IC90 [4, 15] [mg/L] | IC90 [4, 16] [mg/L] | IC90 [5, 17] [mg/L] | IC90 [5, 18] [mg/L] | IC90 [6, 19] [mg/L] | IC90 [6, 20] [mg/L] | IC90 [7, 21] [mg/L] | IC90 [7, 22] [mg/L] | IC90 [8, 23] [mg/L] | IC90 [8, 24] [mg/L] | IC90 [9, 25] [mg/L] | IC90 [9, 26] [mg/L] | IC50 ([10]; Table 2a) [nM] | IC50 ([10]; Table 2b, additional results) [nM] | further results |
| --- | --- | --- | --- | --- | --- | --- | --- | --- | --- | --- | --- | --- | --- | --- | --- | --- | --- | --- | --- | --- | --- |
| COc1ccc(F)cc1[C@H](Cn1c(=O)n(C(C)(C)C(N)=O)c(=O)c2c(C)c(-n3nccn3)sc21)OC1CCOCC1 [Compound I-1] | 5 to 10 | 5 to 10 | 1.1 to 2 (≈ 1.88 to 3.41 µM) | 2.01 to 4 (≈ 3.43 to 6.82 µM) | 2 (≈ 3.41 µM) | 2 (≈ 3.41 µM) | 2 (≈ 3.41 µM) | 2 (≈ 3.41 µM) | 0.4 (≈ 0.682 µM) | 0.4 (≈ 0.682 µM) | 2 (≈ 3.41 µM) | 2 (≈ 3.41 µM) | 10 (≈ 17 µM) | > 50 | 2 (≈ 3.41 µM) | 10 (≈ 17 µM) | > 50 | > 50 | 1 to 5 | 1 to 5 | – |
| COc1ccc(F)cc1[C@H](Cn1c(=O)n(C(C)(C)C(N)=O)c(=O)c2c(C)c(-n3nccn3)sc21)OC(C)C [Compound I-2, (R)-2-(1-(2-(5-fluoro-2-methoxyphenyl)-2-isopropoxyethyl)-5-methyl-2,4-dioxo-6-(2H-1,2,3-triazol-2-yl)-1,4-dihydrothieno[2,3-d]pyrimidin-3(2H)-yl)-2-methylpropanamide] | 1 to 5 | 1 to 5 | 2.1 to 4 (≈ 3.86 to 7.34 µM) | > 4.01 | 2 (≈ 3.67 µM) | 2 (≈ 3.67 µM) | 2 (≈ 3.67 µM) | 2 (≈ 3.67 µM) | 0.4 (≈ 0.734 µM) | 0.4 (≈ 0.734 µM) | 0.4 (≈ 0.734 µM) | 0.4 (≈ 0.734 µM) | > 50 | > 50 | 0.08 (≈ 0.147 µM) | 0.08 (≈ 0.147 µM) | > 50 | > 50 | 1 to 5 | 1 to 5 | – |
| CCNC(=O)C(C)(C)n1c(=O)c2c(C)c(-n3nccn3)sc2n(C[C@H](OC(C)C)c2cc(F)ccc2OC)c1=O [Compound I-3, (R)—N-ethyl-2-(1-(2-(5-fluoro-2-methoxyphenyl)-2-isopropoxyethyl)-5-methyl-2,4-dioxo-6-(2H-1,2,3-triazol-2-yl)-1,4-dihydrothieno[2,3-d]pyrimidin-3(2H)-yl)-2-methylpropanamide] | 5 to 10 | 5 to 10 | – | – | – | – | – | – | – | – | – | – | – | – | – | – | – | – | 1 to 5 | 1 to 5 | MIC ([2]; read-out: MIC, C. parapsilosis ATCC 22019, Table 3a, 3 replicates, MIC recorded at 48 h): 1.1 to 2 mg/L (≈ 1.92 to 3.49 µM); MIC ([2]; read-out: MIC, C. parapsilosis ATCC 22019, Table 3b (additional results), 3 replicates, MIC recorded at 48 h): 2.01 to 4 mg/L (≈ 3.51 to 6.98 µM); IC90 ([3]; read-out: Concentration at 90% Inhibition Cg, Collectotrichum graminicola, growth inhibition at 48 hours vs 2% DMSO control): 0.4 mg/L (≈ 0.698 µM); IC90 ([3]; read-out: Concentration at 90% Inhibition Cg, Collectotrichum graminicola, growth inhibition vs 2% DMSO control at 48 hours): 0.4 mg/L (≈ 0.698 µM); IC90 ([4]; read-out: Concentration at 90% Inhibition Dm, Diplodia maydis, growth inhibition at 48 hours vs 2% DMSO control): 0.4 mg/L (≈ 0.698 µM); IC90 ([4]; read-out: Concentration at 90% Inhibition Dm, Diplodia maydis, growth inhibition vs 2% DMSO control at 48 hours): 0.4 mg/L (≈ 0.698 µM); Concentration at 90% Inhibition Fm [5, 17]: AA (compound concentration of 0.08 ppm at 90% inhibition of fungal pathogens); IC90 [5]: 0.08 mg/L (≈ 0.14 µM); IC90 ([6]; read-out: Concentration at 90% Inhibition Fv, Fusarium virguliforme, growth inhibition at 48 hours vs 2% DMSO control): 0.4 mg/L (≈ 0.698 µM); IC90 ([6]; read-out: Concentration at 90% Inhibition Fv, Fusarium virguliforme, growth inhibition vs 2% DMSO control at 48 hours): 0.4 mg/L (≈ 0.698 µM); IC90 ([7]; read-out: Concentration at 90% Inhibition Pc, Phytophthora capsici, growth inhibition at 48 hours vs 2% DMSO control): > 50 mg/L; IC90 ([7]; read-out: Concentration at 90% Inhibition Pc, Phytophthora capsici, growth inhibition vs 2% DMSO control at 48 hours): > 50 mg/L; IC90 ([8]; read-out: Concentration at 90% Inhibition Rs, Rhizoctonia solani, mycelial plugs, growth inhibition at 48 hours vs 2% DMSO control): 0.08 mg/L (≈ 0.14 µM); IC90 ([8]; read-out: Concentration at 90% Inhibition Rs, Rhizoctonia solani, mycelial plugs, growth inhibition vs 2% DMSO control at 48 hours): 0.08 mg/L (≈ 0.14 µM); IC90 ([9]; read-out: Concentration at 90% Inhibition St, Septoria tritici, growth inhibition at 48 hours vs 2% DMSO control): 10 mg/L (≈ 17.5 µM); IC90 ([9]; read-out: Concentration at 90% Inhibition St, Septoria tritici, growth inhibition vs 2% DMSO control at 48 hours): > 50 mg/L |
